Experimental data published in US20040048834A1, “Antitumoral compounds” (priority 2000, published 2004).
pIC50: −log10 of the molar value. Like-named read-outs stand apart in the source and are kept apart here.

Legend:
Assay type in all cases: cell-based
5637 = test: Cytotoxicity MTS, solid tumors, Bladder 5637; conditions: 4-Parameter Curve Fit, NA = not active
HT-29 = test: Cytotoxicity MTS, solid tumors, Colon HT-29; conditions: 4-Parameter Curve Fit, NA = not active
A549 [1] = test: Cytotoxicity MTS, solid tumors, NSCL A549; conditions: 4-Parameter Curve Fit, NA = not active
PANC-1 = test: Cytotoxicity MTS, solid tumors, Pancreas PANC-1; conditions: 4-Parameter Curve Fit, NA = not active
FADU = test: Cytotoxicity MTS, solid tumors, Pharynx FADU; conditions: 4-Parameter Curve Fit, NA = not active
PC-3 = test: Cytotoxicity MTS, solid tumors, Prostate PC-3; conditions: 4-Parameter Curve Fit, NA = not active
DU-145 = test: Cytotoxicity MTS, solid tumors, Prostate DU-145; conditions: 4-Parameter Curve Fit, NA = not active
LNCAP = test: Cytotoxicity MTS, solid tumors, Prostate LNCAP; conditions: 4-Parameter Curve Fit, NA = not active
NCI-H187 = test: Cytotoxicity MTS, solid tumors, SCL NCI-H187; conditions: 4-Parameter Curve Fit, NA = not active
SW 694 = test: Cytotoxicity MTS, solid tumors, Fibrosarcoma SW 694; conditions: 4-Parameter Curve Fit, NA = not active
CHSA = test: Cytotoxicity MTS, solid tumors, Chondrosarcoma CHSA; conditions: 4-Parameter Curve Fit, NA = not active
OSA-FH = test: Cytotoxicity MTS, solid tumors, Osteosarcoma OSA-FH; conditions: 4-Parameter Curve Fit, NA = not active
MX-1 = test: Cytotoxicity MTS, solid tumors, Breast MX-1; conditions: 4-Parameter Curve Fit, NA = not active
786-O = test: Cytotoxicity MTS, solid tumors, Renal 786-O; conditions: 4-Parameter Curve Fit, NA = not active
Mel-28 = test: Cytotoxicity MTS, solid tumors, Melanoma Mel-28; conditions: 4-Parameter Curve Fit, NA = not active
P388 = test: Cytotoxicity of spisulosine analogs, P388 (after Berjeron et al)
A549 [2] = test: Cytotoxicity of spisulosine analogs, A549 (after Berjeron et al)
HT29 = test: Cytotoxicity of spisulosine analogs, HT29 (after Berjeron et al)
MEL28 = test: Cytotoxicity of spisulosine analogs, MEL28 (after Berjeron et al)
DU145 = test: Cytotoxicity of spisulosine analogs, DU145 (after Berjeron et al)
Y-79 = test: Cytotoxicity MTS, solid tumors, Retinoblastoma Y-79; conditions: 4-Parameter Curve Fit, NA = not active
Molt 3 = test: Cytotoxicity MTS, leukemias/lymphomas, Molt 3; conditions: 4-Parameter Curve Fit, NA = not active, read-out: Cytotoxicity IC50 ALL (Acute lymphobalstic) Molt 3
MC116 = test: Cytotoxicity MTS, leukemias/lymphomas, MC116; conditions: 4-Parameter Curve Fit, NA = not active, read-out: Cytotoxicity IC50 Lymphoma (undifferentiated) MC116
Hut 78 = test: Cytotoxicity MTS, leukemias/lymphomas, Hut 78; conditions: 4-Parameter Curve Fit, NA = not active, read-out: Cytotoxicity IC50 Lymphoma (Cutaneous T cell) Hut 78
[3] = P388, methodology after Berjeron et al, NA=not active, read-out: Cytotoxicity IC50 P388
[4] = A549, methodology after Berjeron et al, NA=not active, read-out: Cytotoxicity IC50 A549
[5] = HT29, methodology after Berjeron et al, NA=not active, read-out: Cytotoxicity IC50 HT29
[6] = MEL28, methodology after Berjeron et al, NA=not active, read-out: Cytotoxicity IC50 MEL28
[7] = DU145, methodology after Berjeron et al, NA=not active, read-out: Cytotoxicity IC50 DU145
[8] = Mus musculus, P388, P388, methodology after Berjeron et al, NA=not active, read-out: Cytotoxicity IC50 P388
[9] = Homo sapiens, SK-MEL-28, MEL28, methodology after Berjeron et al, NA=not active, read-out: Cytotoxicity IC50 MEL28
[10] = Homo sapiens, DU-145, DU145, methodology after Berjeron et al, NA=not active, read-out: Cytotoxicity IC50 DU145

SMILES: CCCCCCCCCCCCCCCCC[C@@H](O)[C@H](C)N [drawing 114]
- pIC50 5637: 5.20
- pIC50 (HT-29): 5.04
- pIC50 (A549 [1]): 5.01
- pIC50 (PANC-1): 6.14
- pIC50 (FADU): 7.09
- pIC50 (PC-3): 7.31
- pIC50 (DU-145): 5.01
- pIC50 (LNCAP): 5.11
- pIC50 (NCI-H187): 5.14
- pIC50 (SW 694): 4.98
- pIC50 (CHSA): 5.80
- pIC50 (OSA-FH): 5.07

SMILES: CCCCCCCCCCCCCCCCC(=O)[C@H](C)N [drawing 119]
- pIC50 5637: 4.52
- pIC50 (MX-1): 4.83
- pIC50 (OSA-FH): 4.83

SMILES: CCCCCCCCCCCCCCCC(=O)[C@@H](N)CC [drawing 121]
- pIC50 5637: 5.80
- pIC50 (MX-1): 5.76
- pIC50 (FADU): 5.52
- pIC50 (786-O): 4.22

SMILES: CCCCCCCCCCCCCC[C@@H](O)[C@H](C)N [drawing 115]
- pIC50 5637: 7.44
- pIC50 (HT-29): 6.58
- pIC50 (A549 [1]): 5.00
- pIC50 (PANC-1): 7.06
- pIC50 (FADU): 7.11
- pIC50 (PC-3): 6.42
- pIC50 (DU-145): 6.70
- pIC50 (LNCAP): 7.15
- pIC50 (Mel-28): 4.99
- pIC50 (SW 694): 5.00
- pIC50 (CHSA): 5.02

SMILES: CCCCCCCCCCCCCCCCCC(=O)[C@H](C)N [drawing 120]
- pIC50 (A549 [1]): 4.70
- pIC50 (FADU): 4.84

SMILES: CCCCCCCCCCCCCCC[C@@H](O)[C@@H](N)CF [drawing 111]
- pIC50 (P388; [3]): 7.48
- pIC50 (A549 [2]; [4]): 7.48
- pIC50 (HT29; [5]): 7.48
- pIC50 (MEL28; [6]): 6.48
- pIC50 (DU145; [7]): 6.48

SMILES: CCCCCCCCCCCCCCC[C@@H](O)[C@H](C)NC
- pIC50 (P388; [3]): 6.48
- pIC50 (A549 [2]; [4]): 6.48
- pIC50 (HT29; [5]): 6.48
- pIC50 (MEL28; [6]): 6.48
- pIC50 (DU145; [7]): 6.48

SMILES: CCCCCCCCCCCCCCCCCC(=O)[C@H](C)N [drawing 105]
- pIC50 (P388; [3]): 6.84
- pIC50 (A549 [2]; [4]): 6.84
- pIC50 (HT29; [5]): 6.84
- pIC50 (MEL28; [6]): 6.54
- pIC50 (DU145; [7]): 6.84

SMILES: CCCCCCCCCCCCCCC[C@H](Cl)[C@H](C)N [(2S,3S)-2-Amino-3-chloro-octadecane]
- pIC50 (P388; [8]): 6.48
- pIC50 (A549 [2]; Homo sapiens, A549, A549, methodology after Berjeron et al, NA=not active, read-out: Cytotoxicity IC50 A549): 6.48
- pIC50 (HT29; Homo sapiens, HT-29, HT29, methodology after Berjeron et al, NA=not active, read-out: Cytotoxicity IC50 HT29): 6.48
- pIC50 (MEL28; [9]): 6.48
- pIC50 (DU145; [10]): 6.48

SMILES: CCCCCCCCCCCCCCC[C@@H](O)[C@@H](N)CC [drawing 58, (3S,4R)-3-Amino-4-nonadecanol]
- pIC50 (P388; [8]): 7.48
- pIC50 (A549 [2]; [4]): 7.48
- pIC50 (HT29; [5]): 7.48
- pIC50 (MEL28; [9]): 6.48
- pIC50 (DU145; [10]): 7.48

SMILES: CCCCCCCCCCCCCCCCC[C@@H](O)[C@H](C)N [drawing 38, (2S,3R)-2-Amino-3-eicosanol]
- pIC50 (P388; [8]): 7.50
- pIC50 (A549 [2]; [4]): 7.50
- pIC50 (HT29; [5]): 7.50
- pIC50 (MEL28; [9]): 6.50
- pIC50 (DU145; [10]): 7.50

SMILES: CCCCCCCCCCCCCC[C@@H](O)[C@H](C)N [drawing 101]
- pIC50 (P388; [3]): 6.79
- pIC50 (A549 [2]; [4]): 6.79
- pIC50 (HT29; [5]): 6.79
- pIC50 (MEL28; [6]): 6.49
- pIC50 (DU145; [7]): 6.79

SMILES: CCCCCCCCCCCCCCCC[C@@H](O)[C@H](C)N [drawing 113]
- pIC50 5637: 7.33
- pIC50 (HT-29): 7.19
- pIC50 (A549 [1]): 7.46
- pIC50 (PANC-1): 6.78
- pIC50 (FADU): 7.99
- pIC50 (PC-3): 7.07
- pIC50 (DU-145): 7.13
- pIC50 (LNCAP): 7.35
- pIC50 (NCI-H187): 6.79
- pIC50 (Y-79): 5.33
- pIC50 (Mel-28): 5.14
- pIC50 (SW 694): 5.19
- pIC50 (CHSA): 7.74
- pIC50 (OSA-FH): 6.74

SMILES: CCCCCCCCCCCCCC[C@@H](O)[C@H](C)N [drawing 117]
- pIC50 5637: 5.49
- pIC50 (A549 [1]): 4.31
- pIC50 (FADU): 4.71

SMILES: CCCCCCCCCCCCCCCCCC[C@@H](O)[C@H](C)N [drawing 52, (2S,3R)-2-Amino-3-heneicosanol]
- pIC50 (P388; [8]): 6.82
- pIC50 (A549 [2]; [4]): 6.52
- pIC50 (HT29; [5]): 6.52
- pIC50 (MEL28; [9]): 6.52
- pIC50 (DU145; [10]): 6.52

SMILES: CCCCCCCCCCCCCCCCC(=O)[C@H](C)N [drawing 104]
- pIC50 (P388; [3]): 6.82
- pIC50 (A549 [2]; [4]): 6.82
- pIC50 (HT29; [5]): 6.82
- pIC50 (MEL28; [6]): 6.52
- pIC50 (DU145; [7]): 6.82

SMILES: CCCCCCCCCCCCC[C@@H](O)[C@H](C)N [drawing 41, (2S,3R)-2-Amino-3-hexadecanol]
- pIC50 (P388; [8]): 6.41
- pIC50 (A549 [2]; [4]): 6.71
- pIC50 (HT29; [5]): 6.41
- pIC50 (MEL28; [9]): 6.43
- pIC50 (DU145; [10]): 6.71

SMILES: CCCCCCCCCCCCCCC[C@@H](O)[C@H](C)N [drawing 36, spisulosine-285, reference compound]
- pIC50 (P388; [3]): 7.46
- pIC50 (A549 [2]; [4]): 7.46
- pIC50 (HT29; [5]): 7.46
- pIC50 (MEL28; [6]): 6.76
- pIC50 (DU145; [7]): 7.46

SMILES: CCCCCCCCCCCCCCCC(=O)[C@H](C)N [drawing 118]
- pIC50 (MX-1): 5.55
- pIC50 (786-O): 6.79
- pIC50 (NCI-H187): 5.45
- pIC50 (Y-79): 4.92

SMILES: CCCCCCCCCCCCCCCCCC(O)C(C)N (stereo not shown)
- pIC50 (Molt 3): 5.12
- pIC50 (MC116): 4.96

SMILES: CCCCCCCCCCCCCCC(O)C(C)N (stereo not shown) [drawing 128]
- pIC50 (Molt 3): 4.58

SMILES: CCCCCCCCCCCCCCC[C@@H](O)[C@@H](N)CC [drawing 116]
- pIC50 5637: 5.11
- pIC50 (HT-29): 5.04
- pIC50 (A549 [1]): 4.99
- pIC50 (PANC-1): 6.73
- pIC50 (FADU): 6.65
- pIC50 (PC-3): 4.99
- pIC50 (DU-145): 7.12
- pIC50 (LNCAP): 5.20
- pIC50 (NCI-H187): 5.14
- pIC50 (Y-79): 5.02
- pIC50 (Mel-28): 5.03
- pIC50 (SW 694): 5.12
- pIC50 (CHSA): 5.05
- pIC50 (OSA-FH): 5.07

SMILES: CCCCCCCCCCCCCCC[C@@H](O)[C@H](C)N(C)C
- pIC50 (P388; [3]): 6.50
- pIC50 (A549 [2]; [4]): 6.50
- pIC50 (HT29; [5]): 6.50
- pIC50 (MEL28; [6]): 6.50
- pIC50 (DU145; [7]): 6.50

SMILES: CCCCCCCCCCCCCCC[C@@H](OP(=O)(OC)OC)[C@H](C)N [(2S,3R)-2-Amino-O-(dimethylphosphate)-3-octadecanol]
- pIC50 (P388; Mus musculus, P388, read-out: Cytotoxicity IC50 P388): 5.90
- pIC50 (A549 [2]; Homo sapiens, A549, read-out: Cytotoxicity IC50 A549): 5.90
- pIC50 (HT29; Homo sapiens, HT-29, read-out: Cytotoxicity IC50 HT29): 5.90
- pIC50 (MEL28; Homo sapiens, SK-MEL-28, read-out: Cytotoxicity IC50 MEL28): 5.90
- pIC50 (DU145; Homo sapiens, DU-145, read-out: Cytotoxicity IC50 DU145): 5.90

SMILES: CCCCCCCCCCCCCCCC(O)C(N)CC (stereo not shown) [drawing 127]
- pIC50 (Molt 3): 7.42
- pIC50 (Hut 78): 5.04

SMILES: CCCCCCCCCCCCCCCC(=O)[C@H](C)N [drawing 102]
- pIC50 (P388; [3]): 7.50
- pIC50 (A549 [2]; [4]): 6.81
- pIC50 (HT29; [5]): 7.50
- pIC50 (MEL28; [6]): 6.81
- pIC50 (DU145; [7]): 7.50
